Experimental data from BigSolDB 2.1.

CC(=O)Nc1ccc(OC(=O)c2ccccc2OC(C)=O)cc1
solubility (mole fraction)
Conditions	278.15 K	283.15 K	288.15 K	293.15 K	298.15 K	303.15 K	308.15 K	313.15 K	318.15 K
in 1,4-dioxane	–	–	–	0.00169	0.00204	0.0025	0.00298	0.0035	0.00427
in 2-butanone	0.0025	0.00267	0.00287	0.00308	0.00333	0.00361	0.00392	0.00429	0.00465
in DMF	0.0172	0.0182	0.0192	0.0203	0.0215	0.0228	0.0242	–	–
in NMP	0.0209	0.024	0.0272	0.0304	0.0341	0.0378	0.0417	0.0464	0.0512
in acetonitrile	0.000681	0.000855	0.00105	0.00134	0.00164	0.00199	0.00236	0.00283	0.00339
in ethanol	0.000158	0.00021	0.000265	0.000326	0.000403	0.000486	0.000589	0.000733	0.000907
in ethyl acetate	0.000392	0.000519	0.000651	0.000789	0.000983	0.00119	0.00141	0.00169	0.00198
in isopropanol	7.6e-05	0.000107	0.000139	0.000178	0.000217	0.000262	0.000323	0.000394	0.000493
in methanol	0.000143	0.000182	0.000228	0.000278	0.000337	0.000403	0.000485	0.000601	0.000745
in n-butanol	0.000179	0.000235	0.0003	0.000375	0.000459	0.000557	0.000683	0.000852	0.00104
in n-propanol	8.8e-05	0.000128	0.000173	0.000214	0.000264	0.000327	0.000402	0.000496	0.000647
in toluene	1.3e-05	1.8e-05	2.5e-05	3.4e-05	4.3e-05	5.5e-05	6.8e-05	8.6e-05	0.000108
